Laboratory results published in PubChem BioAssay (NCI).
“And” between values parts separate entries of the source, which are not always exact repeats. Equal entries are not always repeated.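 Briefly, cells in 96-well plates were exposed to five compound concentrations for 48 h, and endpoints were estimated by linear interpolation. GI50 is the concentration that inhibits growth by half. At the TGI there is no net growth.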

What was measured:
Experiment in all cases: NCI anticancer screen, dose series, 48 h
RPMI-8226 leukemia = system: RPMI-8226 leukemia
PC-3 prostate = system: PC-3 prostate
OVCAR-8 ovarian = system: OVCAR-8 ovarian
MOLT-4 leukemia = system: MOLT-4 leukemia
ACHN renal = system: ACHN renal
HL-60(TB) leukemia = system: HL-60(TB) leukemia
UO-31 renal = system: UO-31 renal
SK-OV-3 ovarian = system: SK-OV-3 ovarian
NCI-H460 lung = system: NCI-H460 lung
BT-549 breast = system: BT-549 breast

Compound	TGI (RPMI-8226 leukemia)	TGI (PC-3 prostate)	GI50 (OVCAR-8 ovarian)	TGI (OVCAR-8 ovarian)	TGI (MOLT-4 leukemia)	TGI (ACHN renal)	GI50 (HL-60(TB) leukemia)	TGI (HL-60(TB) leukemia)	TGI (UO-31 renal)	TGI (SK-OV-3 ovarian)	TGI (NCI-H460 lung)	GI50 (BT-549 breast)	TGI (BT-549 breast)	GI50 (MOLT-4 leukemia)	GI50 (UO-31 renal)	GI50 (NCI-H460 lung)
CC(=O)OC(C)c1cc2c(s1)C(=O)c1c(C(C)OC(C)=O)csc1C2=O (stereo not drawn)	4.98 µM	6.6 µM	0.452 µM	2.05 µM	5.08 µM	2.82 µM	0.0682 µM	2.15 µM	2.9 µM	13.8 µM	1.58 µM	2.14 µM	3.83 µM	–	–	–
CNC(=S)NNc1ncnc2c1ncn2-c1ccc(C)cc1	> 100 µM	> 100 µM	–	> 100 µM	> 100 µM	–	–	> 100 µM	> 100 µM	> 100 µM	> 100 µM	–	> 100 µM	–	–	–
N#CC[N+]1(Cc2ccccn2)CCCC1	> 100 µM	> 100 µM	–	> 100 µM	> 100 µM	> 100 µM	–	> 100 µM	> 100 µM	> 100 µM	> 100 µM	–	> 100 µM	–	–	–
COC12C=CC(C=C1C#N)CC2 (stereo not drawn) (tested in a mixture with another compound)	> 100 µM	> 100 µM	–	> 100 µM	> 100 µM	> 100 µM	–	> 100 µM	> 100 µM	> 100 µM	> 100 µM	–	> 100 µM	–	–	–
Cc1cc(N(CCC#N)CCC#N)ccc1/C=C1\SC(=S)NC1=O	> 100 µM	> 100 µM	–	> 100 µM	> 100 µM	> 100 µM	–	> 100 µM	> 100 µM	> 100 µM	> 100 µM	–	> 100 µM	–	–	–
c1csc(-c2ccsc2-c2ccsc2)c1	> 100 µM	> 100 µM	–	> 100 µM	> 100 µM	> 100 µM	–	> 100 µM	> 100 µM	> 100 µM	> 100 µM	–	> 100 µM	–	–	–
COc1cc(OC2OC(COC(=O)c3cc(O)c(O)c(O)c3)C(O)C(O)C2O)ccc1O (stereo not drawn)	> 100 µM	81.9 µM	–	> 100 µM	> 100 µM	> 100 µM	–	> 100 µM	> 100 µM	–	> 100 µM	–	> 100 µM	–	–	–
CCN(CC)CCOC(=O)Cc1cccc2c(=O)cc(-c3ccccc3)oc12	51 µM and > 224 µM	62.5 µM	–	62.5 µM and > 254 µM	62.5 µM	62.5 µM	3.86 µM	44.6 µM	–	62.5 µM and > 108 µM	62.5 µM and > 111 µM	–	61.7 µM	3.37 µM	295 µM	36.4 µM
O=C(N/N=C(/COc1ccccc1Cl)N=Cc1ccncc1)c1ccncc1	> 100 µM	> 100 µM	–	> 100 µM	> 100 µM	> 100 µM	–	> 100 µM	–	> 100 µM	> 100 µM	–	> 100 µM	–	–	–
CCOC(=O)c1[nH]c2cccc3c2c1CC[C@H](NC(=O)C(F)(F)F)C3=O	> 100 µM	> 100 µM	–	> 100 µM	> 100 µM	–	–	> 100 µM	> 100 µM	–	> 100 µM	–	> 100 µM	–	–	–
COC1=C2C=[N+](C)C3C(=C2C=CC1OC)Cc1cc2c(cc13)OCO2 (stereo not drawn)	27.1 µM	39.3 µM	–	> 100 µM	17.8 µM	–	–	15.7 µM	26.6 µM	28.3 µM	–	–	28.1 µM	–	–	–
CCCc1nnc2sc(COc3cc(Cl)c(OCc4nn5c(CCC)nnc5s4)cc3Cl)nn12	> 100 µM	> 100 µM	–	> 100 µM	> 100 µM	> 100 µM	–	80.5 µM	–	82.5 µM	> 100 µM	–	> 100 µM	–	–	–
CC(C)(C)OC(=O)N1[C@@H]2Cc3ccc(N)cc3[C@@]1(C)c1ccccc12	48.6 µM	> 100 µM	–	–	48.5 µM	> 100 µM	–	44.9 µM	> 100 µM	> 100 µM	48.8 µM	–	43.4 µM	–	–	–
NC(CC(O)(c1ccccc1)c1ccccc1)c1ccccc1S (stereo not drawn)	68.3 µM	24.2 µM	–	–	59.6 µM	27.3 µM	–	59.5 µM	23.5 µM	37.6 µM	38.3 µM	–	27.8 µM	–	–	–
N[C@H](CCC(=O)NCP(=O)(O)O)C(=O)O	> 100 µM	> 100 µM	–	> 100 µM	> 100 µM	> 100 µM	–	> 100 µM	> 100 µM	–	> 100 µM	–	> 100 µM	–	–	–
CCC(=O)/C(=C\I)c1ccccc1	> 100 µM	9.34 µM	–	3.68 µM	7.08 µM	–	–	6.35 µM	4.2 µM	30.2 µM	25.5 µM	–	3.3 µM	–	–	–
CCOC(=O)CCC(NC(=O)Cc1ccc(Oc2nc3ccccc3nc2-c2ccccc2)cc1)C(=O)OCC (stereo not drawn)	> 100 µM	> 100 µM	–	–	> 100 µM	> 100 µM	–	> 100 µM	> 100 µM	> 100 µM	> 100 µM	–	> 100 µM	–	–	–
